According to ChEMBL document CHEMBL5113491, “Discovery of N-benzylarylamide derivatives as novel tubulin polymerization inhibitors capable of activating the Hippo pathway” (Eur J Med Chem, 2022):
Active and inactive are the calls of the source.

Tests used:
SGC-7901 [1] = test: Induction of cell cycle arrest in human SGC-7901 cells assessed as increase in G2/M phase cells measured after 24 hrs by flow cytometry; type: functional, cell-based; details: dose 15-45 nmol/L, DDE = dose-dependent effect
SGC-7901 [2] = test: Induction of apoptosis in human SGC-7901 cells assessed as increase in cleaved caspase 7 expression at 15 to 45 nmol/L measured after 48 hrs by Western blot analysis; type: functional, cell-based; details: dose 15-45 nmol/L
MGC-803 [3] = test: Induction of apoptosis in human MGC-803 cells assessed as decrease in Bcl-xl protein expression measured after 48 hrs by Western blot analysis; type: functional, cell-based; details: dose 15-45 nmol/L, DDE = dose-dependent effect
MGC-803 [4] = test: Induction of apoptosis in human MGC-803 cells assessed as increase in cleaved caspase 7 expression at 15 to 45 nmol/L measured after 48 hrs by Western blot analysis; type: functional, cell-based; details: dose 15-45 nmol/L
Tubulin (Homo sapiens) = Tubulin (Homo sapiens) (UniProt P68371+Q9H4B7+P0DPH7+P68366+Q13509+Q71U36+P04350+Q3ZCM7+P07437+P68363+Q9BQE3+Q6PEY2+Q13885+Q9BVA1+Q9BUF5); test: Induction of microtubule disruption in human SGC-7901 cells at 25 nmol/L measured after 48 hrs by DAPI staining based immunofluorescence assay; type: cell-based
SGC-7901 [5] = test: Induction of morphological changes in human SGC-7901 cells assessed as change in concentration of nuclei at 15 to 45 nmol/L measured after 48 hrs by calcein-AM/PI staining based microscopic analysis; type: functional, cell-based; details: dose 15-45 nmol/L
MGC-803 [6] = test: Antiproliferative activity against human MGC-803 cells assessed as inhibition of cell growth at 15 to 45 […] by MTT assay; type: functional, cell-based; details: dose 15-45 µmol/L, time <= 72.0 hrs, TDE = time-dependent effect
[7] = Induction of cell apoptosis in human MGC-803 cells assessed as increase in apoptotic cells at 45 nmol/L measured after 48 hrs by Annexin V/PI staining based flow cytometric analysis (reference value: 21.96%); type: functional

Measured: Activity

C/C=C/C(=O)N(Cc1ccc(OC)c(O)c1)c1cc(OC)c(OC)c(OC)c1
76.08%: [7]
active: SGC-7901 [1] Dde | SGC-7901 [2] | MGC-803 [3] Dde | MGC-803 [4] | Tubulin (Homo sapiens) | SGC-7901 [5] | MGC-803 [6] Tde
